Measurements published in patent US9402842B2, “Synthesis and use of dual tyrosyl-DNA phosphodiesterase I (Tdp1)—topoisomerase I (Top1) inhibitors” (Purdue Research Foundation, priority 2012, dated 2016).

Experiments:
human recombinant Top1 = human recombinant Top1 (Homo sapiens (Human), UniProt P11387); experiment: Topoisomerase I-mediated DNA cleavage reactions; settings: for Top1, compound-induced DNA cleavage due to Top1 inhibition: semiquantitative scale relative to 1 μM camptothecin (90) or MJ-III-65 (91)
human recombinant Top1, sequence (P11387 whole entry): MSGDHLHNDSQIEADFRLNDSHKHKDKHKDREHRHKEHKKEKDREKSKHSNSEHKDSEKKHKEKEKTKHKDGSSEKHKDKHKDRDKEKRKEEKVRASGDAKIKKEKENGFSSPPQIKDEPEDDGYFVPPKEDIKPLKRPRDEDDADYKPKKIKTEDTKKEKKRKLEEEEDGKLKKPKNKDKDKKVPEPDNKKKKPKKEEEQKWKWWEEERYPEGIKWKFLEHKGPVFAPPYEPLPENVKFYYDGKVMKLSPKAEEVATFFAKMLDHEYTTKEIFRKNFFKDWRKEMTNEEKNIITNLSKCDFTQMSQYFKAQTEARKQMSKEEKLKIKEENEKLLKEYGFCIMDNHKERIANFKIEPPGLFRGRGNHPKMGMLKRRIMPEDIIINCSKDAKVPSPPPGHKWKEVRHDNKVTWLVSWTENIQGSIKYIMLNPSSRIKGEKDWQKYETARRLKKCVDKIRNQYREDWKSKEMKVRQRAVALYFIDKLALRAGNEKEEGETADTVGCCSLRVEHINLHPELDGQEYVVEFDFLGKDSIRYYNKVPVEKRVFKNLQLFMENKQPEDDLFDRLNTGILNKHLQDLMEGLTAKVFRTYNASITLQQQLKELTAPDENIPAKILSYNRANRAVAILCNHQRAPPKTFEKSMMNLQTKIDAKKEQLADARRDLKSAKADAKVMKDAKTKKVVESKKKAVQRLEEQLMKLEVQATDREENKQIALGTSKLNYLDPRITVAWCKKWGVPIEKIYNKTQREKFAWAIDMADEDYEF
Procedure: Topoisomerase I-Mediated DNA Cleavage Reactions.
DNA cleavage reactions were prepared as previously reported with the exception of the DNA substrate. […] Unincorporated [^32P]dGTP was removed using mini Quick Spin DNA columns (Roche, Indianapolis, Ind.), and the eluate containing the 3′-end-labeled DNA substrate was collected. Approximately 2 nM radiolabeled DNA substrate was incubated with recombinant Top1 in 20 μL of reaction buffer [10 mM Tris-HCl (pH 7.5), 50 mM KCl, 5 mM MgCl2, 0.1 mM EDTA, and 15 μg/mL BSA] at 25° C. for 20 min in the presence of various concentrations of compounds. The reactions were terminated by adding SDS (0.5% final concentration) followed by the addition of two volumes of loading dye (80% formamide, 10 mM sodium hydroxide, 1 mM sodium EDTA, 0.1% xylene cyanol, and 0.1% bromphenol blue). Aliquots of each reaction mixture were subjected to 20% denaturing PAGE. Gels were dried and visualized by using a phosphoimager and ImageQuant software (Molecular Dynamics).
Top1 reactions were performed as recently described. […] The reactions were terminated by adding SDS (0.5% final concentration) followed by the addition of two volumes of loading dye (80% formamide, 10 mM sodium hydroxide, 1 mM sodium EDTA, 0.1% xylene cyanol, and 0.1% bromphenol blue). Reactions were subjected to 20% denaturing PAGE. Gels were dried and visualized by using a Typhoon 8600 and ImageQuant software (Molecular Dynamics).

recombinant human Tdp1 = recombinant human Tdp1 (Homo sapiens (Human), UniProt Q9NUW8); experiment: Gel-based assay measuring the inhibition of recombinant Tdp1; format: biochemical; settings: for IC50: determined by duplicate, read-out: Tdp1 (semiquantitative IC50 scale); for Tdp1 inhibitory activity (in words): recombinant Tdp1
recombinant human Tdp1, sequence (Q9NUW8 whole entry): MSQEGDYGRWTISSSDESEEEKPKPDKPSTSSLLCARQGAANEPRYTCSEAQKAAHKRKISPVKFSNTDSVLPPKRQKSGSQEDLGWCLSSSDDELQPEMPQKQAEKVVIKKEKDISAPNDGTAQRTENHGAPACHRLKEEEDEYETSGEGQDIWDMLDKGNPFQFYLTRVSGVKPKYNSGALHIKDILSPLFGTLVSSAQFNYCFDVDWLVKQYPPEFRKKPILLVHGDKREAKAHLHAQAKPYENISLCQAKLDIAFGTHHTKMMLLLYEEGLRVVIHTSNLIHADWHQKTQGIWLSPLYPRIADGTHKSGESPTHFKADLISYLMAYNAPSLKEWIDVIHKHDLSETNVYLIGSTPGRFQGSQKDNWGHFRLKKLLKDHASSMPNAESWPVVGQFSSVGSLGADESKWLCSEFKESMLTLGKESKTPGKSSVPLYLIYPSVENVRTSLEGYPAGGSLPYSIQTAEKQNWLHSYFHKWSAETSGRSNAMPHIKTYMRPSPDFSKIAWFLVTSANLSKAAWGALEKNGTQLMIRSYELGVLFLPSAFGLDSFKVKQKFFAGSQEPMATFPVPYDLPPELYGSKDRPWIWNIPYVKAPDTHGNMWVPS
Procedure: Tdp1 inhibitory activity was measured by the drug's ability to inhibit the hydrolysis of the phosphodiester linkage between tyrosine and the 3′-end of the DNA substrate, and to prevent the generation of an oligonucleotide with a free 3′-phosphate (N14P). Therefore, the disappearance of the gel band for N14P indicated Tdp1 inhibition.
Gel-based Assay Measuring the Inhibition of Recombinant Tdp1.
A 5′-[^32P]-labeled single-stranded DNA oligonucleotide containing a 3′-phosphotyrosine (N14Y) was generated as described by Dexheimer et al. The DNA substrate was then incubated with 5 pM recombinant Tdp1 in the absence or presence of inhibitor for 15 min at room temperature in a buffer containing 50 mM Tris HCl, pH 7.5, 80 mM KCl, 2 mM EDTA, 1 mM DTT, 40 μg/ml BSA and 0.01% Tween-20. […] Gel images were scanned using a Typhoon 8600 (GE Healthcare) and densitometric analyses were performed using the ImageQuant software (GE Healthcare).

[1] = tested on: all human cancer cell lines successfully tested; experiment: NCI screen, mean graph midpoint (MGM) for growth inhibition; format: cell-based; settings: Homo sapiens, read-out: MGM (μM)

`COC(=O)C(=O)Nc1ccc2c3c(n(C)c(=O)c2c1)-c1ccccc1C3=O` [Compound 9 of (B), Methyl 2-[(6-Methyl-5,11-dioxo-6,11-dihydro-5H-indeno[1,2-c]isoquinolin-3-yl)amino]-2-oxoacetate] was tested, and the “Top1, compound-induced DNA cleavage due to Top1 inhibition” value (“Top1 … to Top1 inhibition” below) (human recombinant Top1) was 0.

For `COC(=O)CC(=O)Nc1ccc2c3c(n(C)c(=O)c2c1)-c1ccccc1C3=O` [Compound 10 of (B), Methyl 3-[(6-Methyl-5,11-dioxo-6,11-dihydro-5H-indeno[1,2-c]isoquinolin-3-yl)amino]-3-oxopropanoate], the “Top1 … to Top1 inhibition” value (human recombinant Top1) was 0.

For `COC(=O)CCC(=O)Nc1ccc2c3c(n(C)c(=O)c2c1)-c1ccccc1C3=O` [Compound 11 of (B), Methyl 4-[(6-Methyl-5,11-dioxo-6,11-dihydro-5H-indeno[1,2-c]isoquinolin-3-yl)amino]-4-oxobutanoate], the “Top1 … to Top1 inhibition” value (human recombinant Top1) was “(+)”.

With `COC(=O)CCCC(=O)Nc1ccc2c3c(n(C)c(=O)c2c1)-c1ccccc1C3=O` [Compound 12 of (B), Methyl 5-[(6-Methyl-5,11-dioxo-6,11-dihydro-5H-indeno[1,2-c]isoquinolin-3-yl)amino]-5-oxopentanoate] the “Top1 … to Top1 inhibition” value (human recombinant Top1) was “+”.

With `COC(=O)CCCCC(=O)Nc1ccc2c3c(n(C)c(=O)c2c1)-c1ccccc1C3=O` [Compound 13 of (B), Methyl 6-[(6-Methyl-5,11-dioxo-6,11-dihydro-5H-indeno[1,2-c]isoquinolin-3-yl)amino]-6-oxohexanoate] the “Top1 … to Top1 inhibition” value (human recombinant Top1) was 0.

`COC(=O)CC(=O)Nc1ccc2c3c(n(CCCNC(=O)OC(C)(C)C)c(=O)c2c1)-c1ccccc1C3=O` [Compound 18 of (B), Methyl 3-[(6-(3-((tert-Butoxycarbonyl)amino)propyl)-5,11-dioxo-6,11-dihydro-5H-indeno[1,2-c]isoquinolin-3-yl)amino]-3-oxopropanoate] was tested, and the IC50 (recombinant human Tdp1) was greater than 111 µM and the “Top1 … to Top1 inhibition” value (human recombinant Top1) was 0.

`COC(=O)CCC(=O)Nc1ccc2c3c(n(CCCNC(=O)OC(C)(C)C)c(=O)c2c1)-c1ccccc1C3=O` [Compound 19 of (B), Methyl 4-[(6-(3-((tert-Butoxycarbonyl)amino)propyl)-5,11-dioxo-6,11-dihydro-5H-indeno[1,2-c]isoquinolin-3-yl)amino]-4-oxobutanoate] was tested, and the IC50 (recombinant human Tdp1) was greater than 111 µM and the “Top1 … to Top1 inhibition” value (human recombinant Top1) was 0.

For `COC(=O)CCCC(=O)Nc1ccc2c3c(n(CCCNC(=O)OC(C)(C)C)c(=O)c2c1)-c1ccccc1C3=O` [Compound 20 of (B), Methyl 5-[(6-(3-((tert-Butoxycarbonyl)amino)propyl)-5,11-dioxo-6,11-dihydro-5H-indeno[1,2-c]isoquinolin-3-yl)amino]-5-oxopentanoate], the IC50 (recombinant human Tdp1) was greater than 111 µM and the “Top1 … to Top1 inhibition” value (human recombinant Top1) was 0.

For `COC(=O)CC(=O)Nc1ccc2c3c(n(CCCN)c(=O)c2c1)-c1ccccc1C3=O` [Compound 23 of (B), Methyl 3-[(6-(3-Aminopropyl)-5,11-dioxo-6,11-dihydro-5H-indeno[1,2-c]isoquinolin-3-yl)amino]-3-oxopropanoate], the IC50 [1] was 1.86 µM.

`COC(=O)CCC(=O)Nc1ccc2c3c(n(CCCN)c(=O)c2c1)-c1ccccc1C3=O` [Compound 24 of (B), Methyl 4-[(6-(3-Aminopropyl)-5,11-dioxo-6,11-dihydro-5H-indeno[1,2-c]isoquinolin-3-yl)amino]-4-oxobutanoate] was tested, and the “Top1 … to Top1 inhibition” value (human recombinant Top1) was “(+)”.

In the case of `CC(C)(C)OC(=O)NCCCn1c2c(c3ccc(NC(=O)CCC(=O)O)cc3c1=O)C(=O)c1ccccc1-2` [Compound 29 of (B), 4-[(6-(3-((tert-Butoxycarbonyl)amino)propyl)-5,11-dioxo-6,11-dihydro-5H-indeno[1,2-c]isoquinolin-3-yl)amino]-4-oxobutanoic Acid], the IC50 (recombinant human Tdp1) is reported as 37 to 111 µM and the “Top1 … to Top1 inhibition” value (human recombinant Top1) is reported as “(+)”.

With `Cc1ccc(S(=O)(=O)OCCCCCCCn2c3c(c4ccccc4c2=O)C(=O)c2ccccc2-3)cc1` [Compound 29, 7-(5,11-Dioxo-5H-indeno[1,2-c]isoquinolin-6(11H)-yl)heptyl-4-methyl-benzenesulfonate] the “Tdp1 inhibitory activity (in words)” value (recombinant human Tdp1) was “weakly active”.

With `CC(C)(C)OC(=O)NCCCn1c2c(c3ccc(NC(=O)CCCC(=O)O)cc3c1=O)C(=O)c1ccccc1-2` [Compound 30 of (B), 5-[(6-(3-((tert-Butoxycarbonyl)amino)propyl)-5,11-dioxo-6,11-dihydro-5H-indeno[1,2-c]isoquinolin-3-yl)amino]-5-oxopentanoic Acid] the IC50 (recombinant human Tdp1) was greater than 111 µM and the “Top1 … to Top1 inhibition” value (human recombinant Top1) was 0.

With `O=C1c2ccccc2-c2c1c1ccccc1c(=O)n2CCCl` [Compound 30, 6-(2-Chloroethyl)-5H-indeno[1,2-c]isoquinoline-5,11(6H)-dione] the “Tdp1 inhibitory activity (in words)” value (recombinant human Tdp1) was “inactive”.

In the case of `CC(C)(C)OC(=O)NCCCn1c2c(c3ccc(NC(=O)CCCCC(=O)O)cc3c1=O)C(=O)c1ccccc1-2` [Compound 31 of (B), 6-[(6-(3-((tert-Butoxycarbonyl)amino)propyl)-5,11-dioxo-6,11-dihydro-5H-indeno[1,2-c]isoquinolin-3-yl)amino]-6-oxohexanoic Acid], the “Top1 … to Top1 inhibition” value (human recombinant Top1) is reported as “(+)”.

With `Cl.NCCCn1c2c(c3ccc(NC(=O)C(=O)O)cc3c1=O)C(=O)c1ccccc1-2` [Compound 32 of (B), 2-[(6-(3-Aminopropyl)-5,11-dioxo-6,11-dihydro-5H-indeno[1,2-c]isoquinolin-3-yl)amino]-2-oxoacetic Acid Hydrochloride] the “Top1 … to Top1 inhibition” value (human recombinant Top1) was “+”.

With `Cl.NCCCn1c2c(c3ccc(NC(=O)CC(=O)O)cc3c1=O)C(=O)c1ccccc1-2` [Compound 33 of (B), 3-[(6-(3-Aminopropyl)-5,11-dioxo-6,11-dihydro-5H-indeno[1,2-c]isoquinolin-3-yl)amino]-3-oxopropanoic Acid Hydrochloride] the “Top1 … to Top1 inhibition” value (human recombinant Top1) was “+”.

In the case of `Cl.NCCCn1c2c(c3ccc(NC(=O)CCC(=O)O)cc3c1=O)C(=O)c1ccccc1-2` [Compound 34 of (B), 4-[(6-(3-Aminopropyl)-5,11-dioxo-6,11-dihydro-5H-indeno[1,2-c]isoquinolin-3-yl)amino]-4-oxobutanoic Acid Hydrochloride], the “Top1 … to Top1 inhibition” value (human recombinant Top1) is reported as “+”.

For `Cl.NCCCn1c2c(c3ccc(NC(=O)CCCC(=O)O)cc3c1=O)C(=O)c1ccccc1-2` [Compound 35 of (B), 5-[(6-(3-Aminopropyl)-5,11-dioxo-6,11-dihydro-5H-indeno[1,2-c]isoquinolin-3-yl)amino]-5-oxopentanoic Acid Hydrochloride], the “Top1 … to Top1 inhibition” value (human recombinant Top1) was 0.

In the case of `Cl.NCCCn1c2c(c3ccc(NC(=O)CCCCC(=O)O)cc3c1=O)C(=O)c1ccccc1-2` [Compound 36 of (B), 6-[(6-(3-Aminopropyl)-5,11-dioxo-6,11-dihydro-5H-indeno[1,2-c]isoquinolin-3-yl)amino]-6-oxohexanoic Acid Hydrochloride], the “Top1 … to Top1 inhibition” value (human recombinant Top1) is reported as “+”.

In the case of `CCOC(=O)CNc1ccc2c3c(n(C)c(=O)c2c1)-c1ccccc1C3=O` [Compound 38 of (B), Ethyl 2-[(6-Methyl-5,11-dioxo-6,11-dihydro-5H-indeno[1,2-c]isoquinolin-3-yl)amino]acetate], the “Tdp1 inhibitory activity (in words)” value (recombinant human Tdp1; listed as 38) is reported as “inactivity” and the “Top1 … to Top1 inhibition” value (human recombinant Top1) is reported as 0.

For `Cn1c2c(c3ccc(NCC(=O)O)cc3c1=O)C(=O)c1ccccc1-2` [Compound 41 of (B), 2-[(6-Methyl-5,11-dioxo-6,11-dihydro-5H-indeno[1,2-c]isoquinolin-3-yl)-amino]acetic Acid], the “Tdp1 inhibitory activity (in words)” value (recombinant human Tdp1; listed as 41) was “inactivity” and the “Top1 … to Top1 inhibition” value (human recombinant Top1) was 0.

For `CC(C)(C)OC(=O)NCCCn1c2c(c3ccc(NCC(=O)O)cc3c1=O)C(=O)c1ccccc1-2` [Compound 42 of (B), 2-((6-(3-((tert-Butoxycarbonyl)amino)propyl)-5,11-dioxo-6,11-dihydro-5H-indeno[1,2-c]isoquinolin-3-yl)amino)acetic Acid], the “Tdp1 inhibitory activity (in words)” value (recombinant human Tdp1) was “inactivity” and the “Top1 … to Top1 inhibition” value (human recombinant Top1) was 0.

For `COc1ccc2c(c1)-c1c(c3ccc([N+](=O)[O-])cc3c(=O)n1CCCBr)C2=O` [Compound 49 of (B), 6-(3-Bromopropyl)-5,6-dihydro-8-methoxy-3-nitro-5,11-dioxo-11H-indeno[1,2-c]isoquinoline], the “Tdp1 inhibitory activity (in words)” value (recombinant human Tdp1) was “very weak or inactive” and the “Top1 … to Top1 inhibition” value (human recombinant Top1) was “+++”.

In the case of `COc1ccc2c(c1)-c1c(c3ccc([N+](=O)[O-])cc3c(=O)n1CCCN=[N+]=[N-])C2=O` [Compound 50 of (B), 6-(3-Azidopropyl)-5,6-dihydro-8-methoxy-3-nitro-5,11-dioxo-11H-indeno[1,2-c]isoquinoline], the “Tdp1 inhibitory activity (in words)” value (recombinant human Tdp1) is reported as “very weak or inactive” and the “Top1 … to Top1 inhibition” value (human recombinant Top1) is reported as “+”.

With `COc1ccc2c(c1)-c1c(c3ccc([N+](=O)[O-])cc3c(=O)n1CCCN1CCOCC1)C2=O` [Compound 53 of (B), 8-Methoxy-6-(3-morpholinopropyl)-3-nitro-5H-indeno[1,2-c]isoquinoline-5,11(6H)-dione] the “Tdp1 inhibitory activity (in words)” value (recombinant human Tdp1) was “very weak or inactive” and the “Top1 … to Top1 inhibition” value (human recombinant Top1) was “++”.

With `N#Cc1ccc2c3c(n(CCCn4ccnc4)c(=O)c2c1)-c1ccccc1C3=O` [Compound 72] the IC50 (recombinant human Tdp1) was greater than 111 µM and the “Top1 … to Top1 inhibition” value (human recombinant Top1) was “++”.

`N#Cc1ccc2c3c(n(CCCN4CCOCC4)c(=O)c2c1)-c1ccccc1C3=O` [Compound 73] was tested, and the IC50 (recombinant human Tdp1) was greater than 111 µM and the “Top1 … to Top1 inhibition” value (human recombinant Top1) was “++”.

For `CS(=O)(=O)NCCCCCCCn1c2c(c3ccccc3c1=O)C(=O)c1ccccc1-2` [Compound 85], the “Top1 inhibition (in words)” value (human recombinant Top1) was “active”, the “suppression of Top1-mediated DNA cleavage at high drug concentration” value (human recombinant Top1; high concentration of 100 μM) was “complete suppression” and the “Top1 … to Top1 inhibition” value (human recombinant Top1) was “+++”.
